Reference: publication PMC6273932, “Xanthium strumarium as an Inhibitor of α-Glucosidase, Protein Tyrosine Phosphatase 1β, Protein Glycation and ABTS^+ for Diabetic and Its Complication” (Molecules, 2016)
In brackets after ≈: the same amount, converted by molar mass.

Columns and labels:
[1] = system: α-glucosidase from Saccharomyces sp.; experiment: α-glucosidase inhibitory activity assay (pNPG substrate, absorbance 405 nm); format: biochemical
Description: ^1H- and ^13C-NMR spectra and correlation NMR spectra such as COSY, HMBC, HMQC, and DEPT were obtained from a Bruker Avance DPX 400 (or 600) spectrometer (Berlin, Germany). These were obtained at operating frequencies of 400 MHz (^1H) and 100 (or 150) MHz (^13C) with CD3OD, (CD3)2SO, (CD3)2CO, or D2O and TMS was used as an internal standard; chemical shifts were reported in δ values. The α-glucosidase from Saccharomyces sp. (SSG) was purchased from Wako Pure Chemical Industries Ltd (Tokyo, Japan). […] All other chemicals and reagents used were of analytical grade.
The α-glucosidase inhibitory activity of the extracts and fractions was determined using a modified procedure reported method with a slight modification. The α-glucosidase activity was measured using the substrate p-nitrophenyl-α-D-glucopyranoside (pNPG), which is hydrolyzed by α-glucosidase to release the product p-nitrophenol, a colorant that can be monitored at 405 nm. The initial concentration of the enzyme solution was 0.62 unit/mL in 0.1 M phosphate buffer (pH 6.9) and the initial concentration of the substrate solution was 2 mM in the same phosphate buffer. The enzyme solution was mixed with water and the samples or controls in a clear 96-well microplate (flat bottom) and the reaction was initiated by addition of the substrate to the solution. The plates were incubated at 37 °C for 5 min and the reaction was terminated by the addition of 0.1 M Na2CO3. […] Background absorbance was determined using a non-enzyme control microplate containing the buffer and was subtracted from the absorbance of the samples and controls.

[2] = biological target: T1, protein tyrosine phosphatase 1β (PTP1β) (Homo sapiens, UniProt P18031); experiment: PTP1β inhibitory activity assay (colorimetric kit, IR5 phosphopeptide substrate); format: biochemical; conditions: - is no activity; for inhibition at 10 µg/mL: 10 μg/mL; for IC50: isolated compounds
T1 sequence (P18031 1-322 limits assumed): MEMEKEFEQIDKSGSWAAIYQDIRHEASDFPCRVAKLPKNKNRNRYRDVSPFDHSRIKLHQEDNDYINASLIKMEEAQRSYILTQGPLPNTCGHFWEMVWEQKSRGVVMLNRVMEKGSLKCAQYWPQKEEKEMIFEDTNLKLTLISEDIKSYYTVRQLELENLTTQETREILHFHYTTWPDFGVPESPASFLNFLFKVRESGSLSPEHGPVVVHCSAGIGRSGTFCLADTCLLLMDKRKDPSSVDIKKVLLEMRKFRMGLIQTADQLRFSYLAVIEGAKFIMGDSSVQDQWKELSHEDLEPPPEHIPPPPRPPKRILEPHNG
Procedure: PTP1β tyrosine phosphatase drug discovery kit is a colorimetric, non-radioactive assay designed to measure the phosphatase activity of purified PTP1β. […] Following incubation at 37 °C for 30 min, the reaction was terminated with the BIOMOL RED^TM reagent. The amount of […] produced was estimated by measuring the absorbance at 620 nm. The non-enzymatic hydrolysis of the IR5 substrate was corrected by measuring the increase in absorbance at 620 nm obtained in the absence of PTP1β enzyme.

[3] = system: advanced glycation end products (AGEs); experiment: AGEs inhibitory activity, bovine serum albumin-methylglyoxal assay (fluorescence); format: biochemical; conditions: 100 μg/mL
Procedure: The modified procedure of Lee et al. was followed. Bovine serum albumin (10 mg/mL) was incubated with 5 mM methylglyoxal in sodium phosphate buffer (100 mM; pH 7.4). […] All of the reagents and samples were […] by filtration through 0.2 μm membrane filters and the mixture was incubated at 37 °C for 7 days. The fluorescence intensity was measured at an excitation wavelength of 330 nm and an emission wavelength of 410 nm with a LS50B fluorescence spectrometer Perkin-Elmer Ltd., (Buckinghamshire, FLS, UK). Aminoguanidine was also tested as a known inhibitor.

[4] = system: rat lens aldose reductase; conditions: compounds from X. strumarium; cited from earlier work
[5] = system: recombinant aldose reductase; conditions: compounds from X. strumarium; cited from earlier work
[6] = biological target: α-glucosidase; set-up: method as in ref 15 (Chen et al.); conditions: compounds isolated from aerial parts of Gynura divaricate; ref 15 (Chen et al.); read-out: inhibitory effects against α-glucosidase; cited from earlier work
[7] = ABTS^+ radical scavenging activity assay
Procedure: The method described by Li et al. was used with slight modifications. ABTS^+ diammonium salt (2 mM) and potassium persulfate (3.5 mM) were mixed, diluted in distilled water and kept in the dark at room temperature for 24 h before use. After addition of ABTS^+ solution to 10 µL of antioxidant, measurements were recorded at 10 min post reaction. The percentage inhibition of absorbance at 750 nm was calculated and plotted as a function of concentration of antioxidants. Trolox was used as positive control.

[8] = Table 2, crude extract and fractions, - is no activity
[9] = isolated compounds, - is no activity

Inhibition (%) α-glucosidase ([1]; 50 μg/mL, - is no activity)	inhibition at 10 µg/mL [2]	IC50 [2]	Compound	Inhibition (%) AGEs [3]	other results
22.05%	39.2%	> 14.7 µM	O=C(/C=C/c1ccc(O)c(O)c1)O[C@@H]1C[C@](OC(=O)/C=C/c2ccc(O)c(O)c2)(C(=O)O)C[C@@H](OC(=O)/C=C/c2ccc(O)c(O)c2)[C@H]1O [compound 13, 1,3,5-tri-O-caffeoylquinic acid]	40.22%	rat lens aldose reductase inhibitory activity [4]: strong; recombinant aldose reductase inhibitory activity [5]: strong
38.37%	22.3%	> 19.4 µM	O=C(/C=C/c1ccc(O)c(O)c1)O[C@@H]1C[C@@](OC(=O)/C=C/c2ccc(O)c(O)c2)(C(=O)O)C[C@@H](O)[C@@H]1O [compound 12, 1,3-di-O-caffeoylquinic acid]	40.19%	rat lens aldose reductase inhibitory activity [4]: strong; recombinant aldose reductase inhibitory activity [5]: strong
			methyl 4,5-di-O-CQA		IC50 [6]: 13.1 µM
46.20%	10.6%	> 19.4 µM	O=C(/C=C/c1ccc(O)c(O)c1)O[C@@H]1C[C@](OC(=O)/C=C/c2ccc(O)c(O)c2)(C(=O)O)C[C@@H](O)[C@H]1O [compound 11, 1,5-di-O-caffeoylquinic acid]	25.04%	rat lens aldose reductase inhibitory activity [4]: strong; recombinant aldose reductase inhibitory activity [5]: strong
			O=C(/C=C/c1ccc(O)c(O)c1)O[C@H]1[C@H](O)C[C@](O)(C(=O)O)C[C@H]1OC(=O)/C=C/c1ccc(O)c(O)c1 [3,4-di-O-CQA]		IC50 [6]: 187 µM
15.40%	10.7%	> 20.9 µM	O=C(O)C1OC(Oc2c(-c3ccc(O)c(O)c3)oc3cc(O)cc(O)c3c2=O)C(O)C(O)C1O (stereo not shown) [compound 9, quercetin-3-O-glucuronide]	23.96%	
			Cc1c(C)c2c(c(C)c1O)CCC(C)(C(=O)O)O2 (stereo not shown) [Trolox, reference compound]		Inhibition (%) ABTS^+ ([7]; 1.66 μg/mL): 17.27%; Inhibition (%) ABTS^+ ([7]; 8.33 μg/mL): 54.14%; Inhibition (%) ABTS^+ ([7]; 16.66 μg/mL): 95.06%; IC50 ABTS^+ [7, 8]: 7.51 ± 0.58 µg/mL (≈ 30 µM); IC50 ([7]; isolated compounds): 29.7 µM; IC50 ABTS^+ radical scavenging [7, 9]: 7.43 ± 0.71 µg/mL (≈ 29.7 µM)
5.82%	< 0%	> 19.8 µM	OC[C@H]1O[C@H](OC[C@H]2O[C@H](O[C@]3(CO)O[C@H](CO)[C@@H](O)[C@@H]3O)[C@H](O)[C@@H](O)[C@@H]2O)[C@H](O)[C@@H](O)[C@H]1O [compound 14, raffinose]	14.99%	
			COC(=O)[C@]1(O)C[C@@H](O)[C@@H](OC(=O)/C=C/c2ccc(O)c(O)c2)[C@H](OC(=O)/C=C/c2ccc(O)c(O)c2)C1 [methyl 3,4-di-O-CQA]		IC50 [6]: 12.2 µM
4.70%	< 0%	> 41.1 µM	Nc1ccn([C@@H]2O[C@H](CO)[C@@H](O)[C@H]2O)c(=O)n1 [compound 3, cytidine]	33.16%	
16.98%			C[C@H]1O[C@H](O[C@H]2[C@H](O)[C@@H](O)[C@@H](O[C@H]3[C@H](O)[C@@H](O)C(O)O[C@@H]3CO)O[C@@H]2CO)[C@H](O)[C@@H](O)[C@@H]1N[C@H]1C=C(CO)[C@@H](O)[C@H](O)[C@H]1O (stereo partly shown) [Acarbose, reference compound]		Inhibition (%) α-glucosidase ([1]; 250 μg/mL): 41.06%; Inhibition (%) α-glucosidase ([1]; 500 μg/mL): 60.29%; Inhibition (%) α-glucosidase ([1]; 1000 μg/mL): 106.14%; IC50 α-glucosidase [1, 8]: 377.19 ± 38.17 µg/mL (≈ 584 µM); IC50 ([1]; isolated compounds): 585 µM; IC50 α-glucosidase [1, 9]: 377.19 ± 37.8 µg/mL (≈ 584 µM)
